The results in this text go back to US10420759B2, “Small molecule therapies for pulmonary hypertension” (Creighton University, priority 2016, dated 2019).

Test [1] relates to mouse isolated extralobar pulmonary arteries. The test can be described thus: Relaxation of pre-constricted mouse isolated extralobar pulmonary artery rings (isometric tension). Type of test: cell-based. As to conditions: for EC50: Mus musculus; for relaxation: 1 μM. From the text:
Mouse extralobar pulmonary arteries were isolated and prepared using a modification of a previously reported procedure (see e.g., Bockman et al., 1996, J. Pharmacol. Exp. Ther. 278:1235-1243). Mice were euthanized with CO2, the chest was opened, and the heart and lung combined were isolated from surrounding tissue. The main pulmonary artery was isolated from its origin at the right ventricle, past its bifurcation into the right and left pulmonary arteries. The artery segment was removed and placed in Krebs solution (composition in mM: NaCl 126, KCl 5.5, CaCl2 2.5, NaH2PO4 1.2, MgCl2 1.2, NaHCO3 25, dextrose 11.1, Na2Ca EDTA 0.029) equilibrated with 95%02-5% CO2 (pH 7.4). The pulmonary artery segment was cleaned of connective tissue and the main pulmonary artery and its right and left branches were cut into 2 mm long rings. The rings were mounted using 2 stainless steel pins (0.1 mm in diameter) passed through the artery lumen. One pin was attached to a Kent isometric force transducer (Kent Scientific Corp, Torrington Conn.) for measurement of isometric tension while the second pin was held in a fixed position. This allowed for measurement of contraction and relaxation of the ring in the circular direction. Mounted rings were placed in 10 mL of Krebs solution in glass muscle chambers (Radnoti, Monrovia, Calif.) gassed with 95% 02-5% CO2, and maintained at 37° C. Rings were washed with Krebs solution and equilibrated for 90-120 min at a passive resting tension of 150 mg before experiments with test agents were started.
Mouse isolated extralobar pulmonary arteries were pre-constricted with 250 nM 5-HT, a concentration that causes submaximal constriction, as shown in FIG. 2A. Cumulative addition of pirfenidone and CXN-8 caused a concentration-dependent relaxation of mouse pulmonary arteries with a maximal relaxation of 84.9±3.4% and 76.7±7.0%, respectively, as shown in FIG. 2B.
The endothelium was removed from pulmonary arteries by inserting a small (200 μm diameter) wire into the inside lumen of the arteries and gently rubbing the internal surface. To test for the presence of functional endothelium, rings with and without rubbing were contracted with 250 nM 5-HT followed by relaxation using 1 μM of the endothelium dependent vasorelaxant acetylcholine. Rings that relaxed by 5% or less were considered as lacking the endothelium. Rings with and without endothelium were used to test the relaxant effects of CXN-8.
The synthesis of NO is mediated by a family of NO synthase enzymes. It is well accepted that acetylcholine induces relaxation of pulmonary arteries via endothelium-dependent NO production. Nitric oxide production was inhibited in pulmonary arteries by 30 min incubation with the nitric oxide synthesis inhibitor nitro-L-arginine methyl ester (L-NAME, 100 μM). To test for nitric oxide synthase inhibition by L-NAME, rings were contracted with 250 nM 5-HT followed by relaxation using 1 μM of the nitric oxide dependent vasorelaxant acetylcholine. The relaxant effects of CXN-8 were then tested in rings in the absence (with nitric oxide) and the presence (without nitric oxide) of L-NAME.

Test [2] has as its system small pulmonary arteries in mouse precision-cut lung slices. The test can be described thus: Relaxation of pre-constricted small pulmonary arteries in mouse precision-cut lung slices. In kind it is cell-based. As to conditions: for maximal relaxation: % relaxation of pre-constriction to 100 nM 5-HT; for EC50: Mus musculus, pre-constricted with 100 nM 5-HT. As to the method: Precision cut lung slices were prepared using a modification of previously reported procedures (see e.g., Jiang et al., 2010, J. Pharmacol. Exp. Ther. 334:703-709) and based on the method described by Perez-Joghbi and Sanderson (see e.g., Perez-Joghbi, J. F. and Sanderson, M. J., Am. J. Physiol., 2007, 293:L1000-L1011). Mice were euthanized with CO2, a 2 cm long incision was made in the midline of the neck above the trachea and the trachea was isolated from surrounding tissue. The trachea was cut open and cannulated with PE 90 plastic tubing. A solution of 2% low melting point agarose (Sigma-Aldrich, St. Louis Mo.) in Hanks Buffered Salt solution (HBSS) was prepared at 37° C. Lungs were inflated by injecting 1.2 ml of 2% agarose followed by 0.2 ml of air through the tracheal cannula. The chest was then opened along the midline and the heart was exposed. A solution of 6% gelatin (Sigma-Aldrich, St. Louis Mo.) was prepared in HBSS and 0.4 mL was injected into the right ventricle using a 1 mL syringe and 26 gauge needle, to fill the pulmonary arteries with gelatin. The mouse was cooled to 4° C. for 15 min to harden the agarose and gelatin to stiffen the lung for sectioning. The individual lung lobes were then isolated, glued to a platform and sliced perpendicular to the long axis of the lung. 150 μm thick slices were prepared in ice cold HBSS using an EMS-4000 tissue slicer (Electron Microscopy Sciences, Fort Wash. Pa.). The slices were maintained in sterile, serum-free Dulbecco's modified Eagle's medium (DMEM, Gibco, Grand Island, N.Y.) containing penicillin (100 U/mL, Cellgro, Manassas, Va.), streptomycin (100 μg/mL, Cellgro, Manassas, Va.) and amphotericin B (1.5 μg/mL, Cellgro, Manassas, Va.) at 37° C. and 5% CO2+95% air in a humidified incubator for not more than 3 days.
The method used to measure constriction and relaxation of pulmonary arteries in lung slices is a modification of a method previously described that was used to measure constriction and relaxation of mouse airways (see e.g., Jiang et al., 2010 J. Pharmacol. Exp. Ther. 334:703-709). Lung slices were placed on glass coverslips in a 1 mL volume incubation chamber and held in place with nylon mesh (Small Parts Inc, Miami Lakes, Fla.). The chamber was placed on the stage of a Nikon (Melville, N.Y.) TE200 inverted microscope at room temperature and slices incubated in HBSS containing 10 mM HEPES buffer. Pulmonary arteries in lung slices were imaged using a 20× objective and images recorded using a CoolSNAP HQ2 digital camera (Photometrics, Tucson Ariz.). Images in the absence and the presence of the vasoconstrictor 5-HT (Sigma-Aldrich, St. Louis, Mo.) and the vasorelaxants pirfenidone (Sigma-Aldrich, St. Louis Mo.) and CXN-8, CXN-9 and CXN-16 were collected and vasoconstriction and vasorelaxation was calculated by pixel summing of the cross-sectional area of the pulmonary artery lumen before and after addition of the test agent, using ImageJ software (http://imagej.nih.gov). A decrease in cross-sectional area was defined as vasoconstriction while an increase in cross-sectional area was defined as vasorelaxation, as shown in FIGS. 1A-1B.
First, small pulmonary arteries were pre-constricted in mouse precision-cut lung slices with 100 nM 5-HT, a concentration that causes submaximal constriction of pulmonary arteries, as shown in FIG. 1A.

Test [3] has as its system mouse isolated extralobar pulmonary arteries. The test can be described thus: Relaxation of pre-constricted mouse isolated extralobar pulmonary artery rings (isometric tension). Type of test: cell-based. The conditions noted are these: for EC50: Mus musculus.
The test system of a further test is RGS2−/− mice. As to the kind of experiment: RVSP in RGS2 knockout mice, acute intravenous CXN-8. Type of test: in vivo, mouse. As to conditions: RGS2 KO mice, 4.6 mg/kg i.v. via femoral vein; baseline 36.7±1.9 mmHg. As to the method:
(§1) Mice (20-25 g) were anesthetized via an intraperitoneal (i.p.) injection of a combination of xylazine (10 mg/kg body weight) and ketamine (100 mg/kg body weight). One-half dose was given as supplemental anesthesia as needed. Animals were placed on a heating pad set to maintain body temperature at approximately 37° C. The neck and upper chest area were cleaned with 70% isopropyl alcohol and a 2 cm long incision was made anterior to the manubrium on the right side and above the jugular fossa. The jugular fossa was identified and the external jugular vein was isolated from surrounding tissue. The anterior projection of the jugular vein was tied off with 8-0 silk suture and a 1 mm incision was made in the jugular vein. A 1 French Mikro-Tip pressure catheter (Millar Inc, Houston, Tex.) catheter was inserted into the jugular vein and advanced through the right atrium into the right ventricle to measure ventricular systolic pressure of mice via a pressure transducer using PowerLab monitoring hardware and software (AD Instruments, Colorado Springs, Colo., USA). The pressure catheter was secured in place using an 8-0 silk suture tied around the catheterized jugular vein. […]
(§2) CXN-8 was administered intravenously in a dose-escalation manner in 15 minute intervals from doses of 0.14 mg/kg to 4.6 mg/kg. Hemodynamic indices, including heart rate (HR) and RVSP were measured. […]

In the next test the test system is hypoxic mice (C57BL/6). The test can be described thus: RVSP in chronic hypoxia model of PH in mice, acute intravenous CXN-8. In kind it is in vivo, mouse. As to conditions: 1.4 mg/kg i.v. via femoral vein, baseline 56.4±1.0 mmHg. As to the method:
as §1, §2

Another test has as its system eNOS−/− mice. As to the kind of experiment: Right ventricular systolic pressure (RVSP) in eNOS-knockout mice, acute intravenous CXN-8. Type of test: in vivo, mouse. The conditions noted are these: 4.6 mg/kg i.v. via femoral vein, baseline 40.7±7.6 mmHg. As to the method: as §1, §2
Setting [4] is: intact rings pre-constricted with 250 nM 5-HT.
Where [5] appears, read: 250 nM 5-HT, pre-treatment with L-NAME (100 μM).
The mark [6] stands for this setting: endothelium-denuded arteries, 250 nM 5-HT.

Each structure is given as a SMILES string.

One may read the EC50 as the concentration needed to bring the measured effect to its halfway point. Take `Cc1ccc(=O)n(-c2ccccc2)c1` [pirfenidone, 5-methyl-1-phenylpyridin-2(1H)-one, reference compound]: the concentration giving a half-maximal response (EC50) is 94000 nM in test [1] (setting [4]) and 14300 nM in test [2] (cumulative addition). In addition, the maximal relaxation in test [1] (setting [4]) stood at 84.9±3.4%; in test [2], 81.2±4.8%.

As to `Cc1ccc(=O)n(-c2ccc(OCCCCN3CCCCC3)cc2)c1` [CXN-9, 5-methyl-1-(4-(4-(piperidin-1-yl)butoxy)phenyl)pyridin-2(1H)-one], the concentration for a half-maximal effect (EC50) in test [2] stood at 69.8 nM.

Consider `Cc1ccc(=O)n(-c2ccc(OCCCN3CCCCC3)cc2)c1` [CXN-8, 5-methyl-1-(4-(3-(piperidin-1-yl)propoxy)phenyl)pyridin-2(1H)-one], for which the 50% effective concentration (EC50) in test [3] (ET-1 pre-contracted arteries) came out at 21.7 nM; in test [3] (U46619 pre-contracted arteries), 40.3 nM; in test [1] (250 nM 5-HT, absence of L-NAME), 5.6 nM; in test [1] (setting [5]), 9.9 nM; in test [1] (setting [6]) it was 10.9 nM; in test [1] (setting [4]), 5.2 nM. This compound registered an EC50 in test [2] of 5.6 nM. For the same compound, the maximal relaxation is 70.6±7.1% in test [3] (U46619 (20 nM) pre-contracted arteries); 86.6±4.1% in test [3] (endothelin 1 (ET-1, 10 nM) pre-contracted arteries); 74.5±7.4% in test [1] (250 nM 5-HT, absence of L-NAME); 45.5±6.2% in test [1] (setting [5]); 47.2±2.9% in test [1] (setting [6]); 76.7±7.0% in test [1] (setting [4]). For the same compound, in test [2], the maximal relaxation is given as 77.1±9.6%. In addition, the results for the RVSP after treatment in the test on RGS2−/− mice, in the test on hypoxic mice (C57BL/6) and in the test with eNOS−/− mice were 19.6±0.9 mmHg, 37.4±1.7 mmHg and 29.3±1.5 mmHg, respectively.

As to `CC(=O)OCC[N+](C)(C)C` [acetylcholine, reference compound], the figures for the relaxation in test [1] (250 nM 5-HT-pre-contracted endothelium-denuded arteries) and in test [1] (250 nM 5-HT-pre-contracted endothelium-intact arteries) were 5% and 42%, respectively.

In turn, `Cc1ccc(=O)n(-c2ccc(OCCCCN(C)C)cc2)c1` [CXN-16, 1-(4-(4-(dimethylamino)butoxy)phenyl)-5-methylpyridin-2(1H)-one] had an EC50 in test [2] (unit inferred) of 1700 nM.
